Laboratory results as given in PMC7253423, “Quassinoid analogs with enhanced efficacy for treatment of hematologic malignancies target the PI3Kγ isoform” (Communications Biology, 2020).

Key:
[1] = target: T1, PIK3CG encoded protein (PI3Kγ) (Homo sapiens, UniProt P48736); experiment: Streptavidin pull-down and mass spectrometry; assay type: binding; settings: Raji lysates, gene PIK3CG
T1 construct: endogenous in cells; host or cells: Raji cells (lysate)
Experimental: (§1) Two hundred million Raji cells were harvested and lysed with RIPA buffer [1% Nonidet P-40 (NP-40), 10 mM Tris (pH8.0), 2 mM EDTA, 150 mM NaCl, supplemented with protease inhibitors (1 mM phenylmethylsulphonyl fluoride (PMSF), 1 μg/ml each Aprotinin, Pepstatin, and Leupeptin)]. Twenty milligram lysates were combined with magnetic Streptavidin beads as well as biotin-conjugated compounds 51046, 51048, or 51052, respectively. The complexes were incubated overnight with rotation at 4 °C. The immunoprecipitated samples were washed with RIPA three times and resolved on an SDS-PAGE gel.
(§2) The following Mass Spectrometry proteomics resources and services are provided by the Quantitative Proteomics Resource Core at School of Medicine at the University of Pennsylvania. Briefly, the peptides were extracted from the gel band and analyzed with an Orbitrap Fusion (Thermo Fisher Scientific, San Jose, CA, USA) attached to an EasyLC 1000 system (Thermo Fisher Scientific, San Jose, CA, USA) at 400 nL/min. The raw MS data were processed using MaxQuant (Version 1.5.3.30)[61], and searched with the UniProt human database. Then the target-decoy approach was used to filter the search results, in which the false discovery rate was less than 1% at the peptide and protein level.

[2] = target: T2, TP73 encoded protein (P73) (Homo sapiens, UniProt O15350); experiment: Streptavidin pull-down and mass spectrometry; assay type: binding; settings: Raji lysates, gene TP73
T2 construct: endogenous in cells; host or cells: Raji cells (lysate)
Experimental: as §1, §2

GST-tagged PI3Kγ protein = target: T3, GST-tagged PI3Kγ protein (Homo sapiens, UniProt P48736); experiment: In vitro pull-down assay with purified protein; assay type: binding; settings: 0, 300 μM, or 500 μM compound, Dynabeads M-280 Streptavidin
T3 construct: made in house; host or cells: E. coli BL21 (DE3)
Source text: PIK3CG cDNA (Plasmid #20574) was purchased from Addgene and cloned into a pGEX-6P-1 vector (GE Healthcare, Madison, WI, USA) with SalI and NotI (NEB, USA). This GST-tagged PIK3CG plasmid was transformed into E. coli BL21 (DE3)-competent cells (Life Technologies, Carlsbad, CA, USA) for in vitro expression according to Molecular Cloning (Third Edition).
(§3) Thirty microgram of purified GST-tagged proteins were pre-cleared with Dynabeads M-280 Streptavidin (Invitrogen, Carlsbad, CA, USA). […] The complexes were harvested and washed with PBS. The collected beads were mixed with SDS loading buffer for further analysis.

[3] = target: T4, JUP encoded protein (junction plakoglobin) (Homo sapiens, UniProt P14923); experiment: Streptavidin pull-down and mass spectrometry; assay type: binding; settings: Raji lysates, gene JUP
T4 construct: endogenous in cells; host or cells: Raji cells (lysate)
Experimental: as §1, §2

[4] = target: T5, PIK3C2B encoded protein (PI3KC2β) (Homo sapiens, UniProt O00750); experiment: Streptavidin pull-down and mass spectrometry; assay type: binding; settings: Raji lysates, gene PIK3C2B
T5 construct: endogenous in cells; host or cells: Raji cells (lysate)
Experimental: as §1, §2

AKT1 = target: T6, AKT1 (Homo sapiens, UniProt P31749); experiment: Competitive binding pull-down assay in SU-DHL-4 cell lysates, western blot; settings: SU-DHL-4 lysates
T6 construct: endogenous in cells; host or cells: SU-DHL-4 cells (lysate)
Experimental: as §3
(§4) Western blot analyses were performed as previously described. Briefly, total cell lysates were separated by SDS-PAGE gel and transferred to nitrocellulose membrane. The membranes were blocked with 5% non-fat milk, probed with specific antibodies, and visualized using the Odyssey scanner (LiCor Inc., Lincoln, NE).

GAPDH = target: T7, GAPDH (Homo sapiens, UniProt P04406); experiment: as above; settings: SU-DHL-4 lysates
T7 construct: endogenous in cells; host or cells: SU-DHL-4 cells (lysate)
Experimental: as §3, §4

PI3Kγ = target: T8, PI3Kγ (Homo sapiens, UniProt P48736); experiment: as above; settings: SU-DHL-4 lysates, biotin derivative alone
T8 construct: endogenous in cells; host or cells: SU-DHL-4 cells (lysate)
Experimental: as §3, §4

T6 sequence (P31749 whole entry): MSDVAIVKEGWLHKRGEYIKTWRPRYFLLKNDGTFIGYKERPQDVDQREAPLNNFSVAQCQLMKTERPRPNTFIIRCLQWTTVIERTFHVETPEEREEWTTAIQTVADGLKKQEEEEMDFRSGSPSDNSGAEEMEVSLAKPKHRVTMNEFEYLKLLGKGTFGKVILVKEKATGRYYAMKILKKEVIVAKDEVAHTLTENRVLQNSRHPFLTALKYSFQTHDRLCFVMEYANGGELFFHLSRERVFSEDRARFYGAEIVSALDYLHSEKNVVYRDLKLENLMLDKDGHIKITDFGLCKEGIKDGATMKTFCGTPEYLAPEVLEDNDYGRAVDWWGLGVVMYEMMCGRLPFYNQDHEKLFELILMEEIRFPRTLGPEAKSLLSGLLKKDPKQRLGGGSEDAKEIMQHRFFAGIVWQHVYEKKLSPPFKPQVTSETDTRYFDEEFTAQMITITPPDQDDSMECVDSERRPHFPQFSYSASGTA
T7 sequence (P04406 whole entry): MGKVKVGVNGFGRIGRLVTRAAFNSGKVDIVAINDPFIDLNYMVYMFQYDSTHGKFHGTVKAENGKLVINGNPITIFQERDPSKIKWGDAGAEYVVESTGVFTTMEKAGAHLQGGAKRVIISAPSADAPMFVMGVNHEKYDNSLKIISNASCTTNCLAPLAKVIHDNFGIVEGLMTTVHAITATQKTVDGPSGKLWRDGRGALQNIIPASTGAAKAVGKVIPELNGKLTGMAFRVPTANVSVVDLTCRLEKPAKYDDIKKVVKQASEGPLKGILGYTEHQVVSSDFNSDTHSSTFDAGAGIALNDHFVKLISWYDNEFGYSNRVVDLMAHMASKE
T4 sequence (P14923 whole entry): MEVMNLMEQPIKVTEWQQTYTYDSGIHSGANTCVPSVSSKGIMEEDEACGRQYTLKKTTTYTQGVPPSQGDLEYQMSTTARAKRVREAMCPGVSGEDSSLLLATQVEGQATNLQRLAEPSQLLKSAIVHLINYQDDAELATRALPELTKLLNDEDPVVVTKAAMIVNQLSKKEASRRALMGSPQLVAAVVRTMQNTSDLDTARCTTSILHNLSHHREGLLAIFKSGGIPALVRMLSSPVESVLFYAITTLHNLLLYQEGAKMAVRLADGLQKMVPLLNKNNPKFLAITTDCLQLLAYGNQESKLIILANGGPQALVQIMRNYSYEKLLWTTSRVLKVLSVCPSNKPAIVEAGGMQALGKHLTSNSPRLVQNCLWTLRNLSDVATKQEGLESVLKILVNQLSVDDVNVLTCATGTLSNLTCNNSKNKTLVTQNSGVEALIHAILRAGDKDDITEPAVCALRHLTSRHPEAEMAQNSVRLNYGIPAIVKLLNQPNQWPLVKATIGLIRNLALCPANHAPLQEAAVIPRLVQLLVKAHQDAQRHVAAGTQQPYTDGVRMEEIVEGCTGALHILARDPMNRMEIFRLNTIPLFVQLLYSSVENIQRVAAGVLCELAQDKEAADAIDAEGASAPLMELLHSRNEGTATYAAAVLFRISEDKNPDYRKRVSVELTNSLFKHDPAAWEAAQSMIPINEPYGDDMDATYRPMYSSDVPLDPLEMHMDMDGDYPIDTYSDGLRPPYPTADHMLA
T2 sequence (O15350 whole entry): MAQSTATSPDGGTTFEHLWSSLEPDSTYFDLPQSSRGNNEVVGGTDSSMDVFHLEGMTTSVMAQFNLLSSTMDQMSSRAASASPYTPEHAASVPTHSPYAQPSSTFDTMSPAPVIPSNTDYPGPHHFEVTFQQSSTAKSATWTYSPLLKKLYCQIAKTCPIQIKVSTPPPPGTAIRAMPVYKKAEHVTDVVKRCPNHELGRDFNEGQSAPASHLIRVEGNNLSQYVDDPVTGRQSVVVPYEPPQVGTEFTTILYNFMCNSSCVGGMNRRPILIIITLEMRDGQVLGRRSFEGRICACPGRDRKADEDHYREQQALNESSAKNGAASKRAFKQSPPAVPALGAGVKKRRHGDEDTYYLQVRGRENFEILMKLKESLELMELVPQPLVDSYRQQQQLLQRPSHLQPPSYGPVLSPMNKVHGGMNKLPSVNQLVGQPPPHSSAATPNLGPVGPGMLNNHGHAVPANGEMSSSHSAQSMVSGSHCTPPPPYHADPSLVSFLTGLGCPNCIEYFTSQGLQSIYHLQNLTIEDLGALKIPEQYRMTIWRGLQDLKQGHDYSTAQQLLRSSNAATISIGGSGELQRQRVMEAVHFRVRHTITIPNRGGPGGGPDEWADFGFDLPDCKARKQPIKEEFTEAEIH
T5 sequence (O00750 whole entry): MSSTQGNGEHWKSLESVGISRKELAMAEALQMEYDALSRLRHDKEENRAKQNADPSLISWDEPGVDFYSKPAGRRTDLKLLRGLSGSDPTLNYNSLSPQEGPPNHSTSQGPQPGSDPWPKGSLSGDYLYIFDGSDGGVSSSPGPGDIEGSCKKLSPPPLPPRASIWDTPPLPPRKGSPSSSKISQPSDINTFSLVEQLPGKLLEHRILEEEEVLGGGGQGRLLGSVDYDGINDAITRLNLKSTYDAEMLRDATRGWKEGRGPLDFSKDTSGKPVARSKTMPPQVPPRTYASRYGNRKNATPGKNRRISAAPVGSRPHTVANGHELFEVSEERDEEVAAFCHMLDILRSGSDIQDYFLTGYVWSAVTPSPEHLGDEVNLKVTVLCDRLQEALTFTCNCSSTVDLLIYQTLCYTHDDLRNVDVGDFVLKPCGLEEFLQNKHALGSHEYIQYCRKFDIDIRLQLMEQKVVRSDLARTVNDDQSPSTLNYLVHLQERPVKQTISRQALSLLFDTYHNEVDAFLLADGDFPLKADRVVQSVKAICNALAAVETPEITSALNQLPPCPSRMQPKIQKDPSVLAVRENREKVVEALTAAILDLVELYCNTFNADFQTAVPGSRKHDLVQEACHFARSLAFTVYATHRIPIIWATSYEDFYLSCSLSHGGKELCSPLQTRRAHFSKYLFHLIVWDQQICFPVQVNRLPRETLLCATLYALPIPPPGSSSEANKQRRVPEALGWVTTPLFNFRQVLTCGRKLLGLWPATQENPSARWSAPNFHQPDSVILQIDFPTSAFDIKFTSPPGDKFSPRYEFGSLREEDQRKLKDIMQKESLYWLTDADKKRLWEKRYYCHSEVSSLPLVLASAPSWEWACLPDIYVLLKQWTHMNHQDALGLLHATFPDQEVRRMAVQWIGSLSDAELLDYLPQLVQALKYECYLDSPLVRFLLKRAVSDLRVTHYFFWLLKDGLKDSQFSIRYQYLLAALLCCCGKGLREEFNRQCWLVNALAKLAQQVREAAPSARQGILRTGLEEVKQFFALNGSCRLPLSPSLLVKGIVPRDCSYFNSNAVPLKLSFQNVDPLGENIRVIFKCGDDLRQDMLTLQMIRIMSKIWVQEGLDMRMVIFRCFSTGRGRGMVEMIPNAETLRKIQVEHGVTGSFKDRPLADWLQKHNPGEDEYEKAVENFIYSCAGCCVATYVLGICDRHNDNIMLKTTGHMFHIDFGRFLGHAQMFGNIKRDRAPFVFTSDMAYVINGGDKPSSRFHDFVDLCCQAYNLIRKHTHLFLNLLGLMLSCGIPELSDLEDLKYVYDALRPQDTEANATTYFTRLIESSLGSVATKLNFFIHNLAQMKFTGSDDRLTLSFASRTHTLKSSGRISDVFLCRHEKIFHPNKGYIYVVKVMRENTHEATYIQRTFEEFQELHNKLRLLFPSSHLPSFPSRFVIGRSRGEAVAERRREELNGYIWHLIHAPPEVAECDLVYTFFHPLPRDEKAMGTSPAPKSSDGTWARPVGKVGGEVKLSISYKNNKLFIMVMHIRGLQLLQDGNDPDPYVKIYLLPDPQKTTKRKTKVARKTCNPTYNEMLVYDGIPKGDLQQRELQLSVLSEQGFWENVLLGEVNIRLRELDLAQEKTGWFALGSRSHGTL
T1 sequence (P48736 whole entry): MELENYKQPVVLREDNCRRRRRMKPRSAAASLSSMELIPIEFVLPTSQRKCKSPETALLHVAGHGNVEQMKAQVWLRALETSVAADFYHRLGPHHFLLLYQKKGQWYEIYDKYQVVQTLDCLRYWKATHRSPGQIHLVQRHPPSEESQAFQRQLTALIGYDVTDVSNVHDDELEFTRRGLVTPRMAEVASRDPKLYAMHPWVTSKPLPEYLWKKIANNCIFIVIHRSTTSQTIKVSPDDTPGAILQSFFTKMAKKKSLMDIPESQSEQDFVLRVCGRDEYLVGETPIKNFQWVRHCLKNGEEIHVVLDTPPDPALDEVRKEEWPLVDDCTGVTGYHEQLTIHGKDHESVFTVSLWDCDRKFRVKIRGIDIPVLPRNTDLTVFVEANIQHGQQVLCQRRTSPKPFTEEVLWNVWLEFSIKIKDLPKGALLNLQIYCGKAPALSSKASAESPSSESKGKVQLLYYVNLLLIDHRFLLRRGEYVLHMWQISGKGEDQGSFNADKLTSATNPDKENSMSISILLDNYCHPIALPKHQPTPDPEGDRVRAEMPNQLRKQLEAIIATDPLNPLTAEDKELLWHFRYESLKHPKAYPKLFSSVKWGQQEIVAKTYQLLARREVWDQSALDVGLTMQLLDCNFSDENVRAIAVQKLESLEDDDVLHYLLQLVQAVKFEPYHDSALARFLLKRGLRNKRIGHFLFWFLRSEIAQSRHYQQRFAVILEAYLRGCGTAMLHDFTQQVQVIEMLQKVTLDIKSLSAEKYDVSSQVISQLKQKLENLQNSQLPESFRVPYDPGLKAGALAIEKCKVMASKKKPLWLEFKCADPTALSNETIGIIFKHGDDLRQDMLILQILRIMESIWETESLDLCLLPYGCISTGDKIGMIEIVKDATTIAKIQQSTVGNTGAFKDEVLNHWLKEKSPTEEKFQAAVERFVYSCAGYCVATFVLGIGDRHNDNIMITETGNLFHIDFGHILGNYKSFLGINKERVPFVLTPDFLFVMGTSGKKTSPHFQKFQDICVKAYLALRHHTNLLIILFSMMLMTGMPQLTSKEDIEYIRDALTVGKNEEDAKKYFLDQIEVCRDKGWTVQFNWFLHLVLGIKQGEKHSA
T8 sequence (P48736 whole entry): as above
T3 sequence (P48736 whole entry): as above

Compound | Score (sum of the ion scores of all peptides identified) [1] | Score (sum of the ion scores of all peptides identified) [2] | association with GST-tagged PI3Kγ (GST-tagged PI3Kγ protein) | Score (sum of the ion scores of all peptides identified) [3] | Score (sum of the ion scores of all peptides identified) [4] | AKT1 pulled down (AKT1) | GAPDH pulled down (GAPDH) | binding activity with PI3Kγ (PI3Kγ)
COC(=O)C12OCC34C(CC5C(C)=C(OC(=O)CCCCCNC(=O)CCCCC6SCC7NC(=O)NC76)C(=O)CC5(C)C3C(O)C1O)OC(=O)C(OC(=O)C=C(C)C)C24 (centres unmarked) [compound 51052] | 6.132 | 6.0132 | formed a complex | – | – | – | – | –
COC(=O)C12OCC34C(CC5C(C)=C(OC(=O)CCCCC6SCC7NC(=O)NC76)C(=O)CC5(C)C3C(O)C1O)OC(=O)C(OC(=O)C=C(C)C)C24 (centres unmarked) [compound 51048] | – | – | – | 11.324 | 5.9631 | little or no detectable levels | little or no detectable levels | relatively strong
